From patent US20240050428A1 (Cullgen (Shanghai), Inc., priority 2020, published 2024)
Read-outs that look alike come from different tables or passages of the source.

Tests used:
MV4;11 cells = test: Cell viability assay (CellTiter-Glo) in MV4;11 cells, alone or with gilteritinib; assay type: cell-based; details: Homo sapiens, MV4;11 cells, three days, CellTiter-Glo, read-out: MV4
MOLM-13 cells = test: Cell viability assay (CellTiter-Glo) in MOLM-13 cells, alone or with gilteritinib; assay type: cell-based; details: Homo sapiens, MOLM-13 cells, three days, CellTiter-Glo
[1] = MV4-11, 72 h, compound alone (without gilteritinib), 11 IC50
[2] = MV4-11, 72 h, with gilteritinib 10 nM, 11 IC50 gilteritinib
[3] = MOLM-13, 72 h, compound alone (without gilteritinib), read-out: MOLM-13 IC50
[4] = MOLM-13, 72 h, with gilteritinib 20 nM, read-out: MOLM-13 IC50 gilteritinib
[5] = MV4-11, 72 h, compound with gilteritinib 10 nM, 11 IC50 gilteritinib
[6] = MOLM-13, 72 h, compound with gilteritinib 20 nM, read-out: MOLM-13 IC50 gilteritinib

SMILES | IC50 (MV4;11 cells; [1]) [nM] | IC50 (MV4;11 cells; [2]) [nM] | IC50 (MOLM-13 cells; [3]) [nM] | IC50 (MOLM-13 cells; [4]) [nM] | IC50 (MV4;11 cells; [5]) [nM] | IC50 (MOLM-13 cells; [6]) [nM] | IC50 (MV4;11 cells; 72 h, compound alone (without gilteritinib), 11 IC50) [nM] | IC50 (MV4;11 cells; 72 h, with gilteritinib 10 nM, 11 IC50 gilteritinib) [nM] | IC50 (MOLM-13 cells; 72 h, compound alone (without gilteritinib), read-out: MOLM-13 IC50) [nM] | IC50 (MOLM-13 cells; 72 h, with gilteritinib 20 nM, read-out: MOLM-13 IC50 gilteritinib) [nM]
CN1CCN(c2cccc3ncc(-c4cnn(C5CCN(C(=O)CCCCCNc6ccc7c(c6)C(=O)N(C6CCC(=O)NC6=O)C7=O)CC5)c4)nc23)CC1 (centres unmarked) [GS-036, 2-(2,6-Dioxopiperidin-3-yl)-5-((6-(4-(4-(8-(4-methylpiperazin-1-yl)quinoxalin-2-yl)-1H-pyrazol-1-yl)piperidin-1-yl)-6-oxohexyl)amino)isoindoline-1,3-dione] | > 1000 | < 10 | > 1000 | 10 to 100 | – | – | – | – | – | –
O=C1CCC(N2C(=O)c3ccc(NCCCCCCn4cc(-c5cnc6cccc(C7CC7)c6n5)cn4)cc3C2=O)C(=O)N1 (centres unmarked) [GS-389, 5-((6-(4-(8-Cyclopropylquinoxalin-2-yl)-1H-pyrazol-1-yl)hexyl)amino)-2-(2,6-dioxopiperidin-3-yl)isoindoline-1,3-dione] | 100 to 1000 | 10 to 100 | 100 to 1000 | 10 to 100 | – | – | – | – | – | –
O=C(CCC(F)(F)C(=O)N1CCC(n2cc(-c3cnc4cccc(Br)c4n3)cn2)CC1)NCc1ccc2c(c1)CN(C1CCC(=O)NC1=O)C2=O (centres unmarked) [GS-054, 5-(4-(4-(8-Bromoquinoxalin-2-yl)-1H-pyrazol-1-yl)piperidin-1-yl)-N-((2-(2,6-dioxopiperidin-3-yl)-1-oxoisoindolin-5-yl)methyl)-4,4-difluoro-5-oxopentanamide] | < 10 | < 10 | 10 to 100 | < 10 | – | – | – | – | – | –
O=C1CCC(N2Cc3ccc(CCCCCCC(=O)N4CCN(c5ccccn5)CC4)cc3C2=O)C(=O)N1 (centres unmarked) [GS-096, 3-(1-Oxo-6-(7-oxo-7-(4-(pyridin-2-yl)piperazin-1-yl)heptyl)isoindolin-2-yl)piperidine-2,6-dione] | – | – | – | – | – | – | 10 to 100 | < 10 | 100 to 1000 | < 10
O=C1CCC(N2Cc3ccc(CCCCC(=O)N4CCC(n5cc(-c6cnc7ccccc7n6)cn5)CC4)cc3C2=O)C(=O)N1 (centres unmarked) [GS-161, 3-(1-Oxo-6-(5-oxo-5-(4-(4-(quinoxalin-2-yl)-1H-pyrazol-1-yl)piperidin-1-yl)pentyl)isoindolin-2-yl)piperidine-2,6-dione] | 100 to 1000 | 10 to 100 | > 1000 | 10 to 100 | – | – | – | – | – | –
Cc1cncc(-c2cnn(CCCCCCNc3ccc4c(c3)C(=O)N(C3CCC(=O)NC3=O)C4=O)c2)c1 (centres unmarked) [GS-499, 2-(2,6-dioxopiperidin-3-yl)-5-((6-(4-(5-methylpyridin-3-yl)-1H-pyrazol-1-yl)hexyl)amino)isoindoline-1,3-dione] | > 1000 | – | > 1000 | – | 100 to 1000 | 100 to 1000 | – | – | – | –
O=C1CCC(N2C(=O)c3ccc(NC[C@H]4C[C@H](n5cc(-c6cccc(C7CC7)n6)c(C6CC6)n5)C4)cc3C2=O)C(=O)N1 (stereo partly drawn) [GS-466, 5-(((trans-3-(3-cyclopropyl-4-(6-cyclopropylpyridin-2-yl)-1H-pyrazol-1-yl)cyclobutyl)methyl)amino)-2-(2,6-dioxopiperidin-3-yl)isoindoline-1,3-dione] | 10 to 100 | – | 100 to 1000 | – | 10 to 100 | 10 to 100 | – | – | – | –
O=C1CCC(N2Cc3cc(OCCCCCC(=O)N4CCC(n5cc(-c6cnc7ccccc7n6)cn5)CC4)ccc3C2=O)C(=O)N1 (centres unmarked) [GS-493, 3-(1-oxo-5-((6-oxo-6-(4-(4-(quinoxalin-2-yl)-1H-pyrazol-1-yl)piperidin-1-yl)hexyl)oxy)isoindolin-2-yl)piperidine-2,6-dione] | 10 to 100 | – | > 1000 | – | < 10 | < 10 | – | – | – | –

Now from value to compound, other results behind:

IC50 (MV4;11 cells; [1]) [nM] | IC50 (MV4;11 cells; [2]) [nM] | IC50 (MOLM-13 cells; [3]) [nM] | IC50 (MOLM-13 cells; [4]) [nM] | IC50 (MV4;11 cells; [5]) [nM] | IC50 (MOLM-13 cells; [6]) [nM] | SMILES | IC50 (MV4;11 cells; 72 h, compound alone (without gilteritinib), 11 IC50) [nM] | IC50 (MV4;11 cells; 72 h, with gilteritinib 10 nM, 11 IC50 gilteritinib) [nM] | IC50 (MOLM-13 cells; 72 h, compound alone (without gilteritinib), read-out: MOLM-13 IC50) [nM] | IC50 (MOLM-13 cells; 72 h, with gilteritinib 20 nM, read-out: MOLM-13 IC50 gilteritinib) [nM]
> 1000 | > 1000 | > 1000 | > 1000 | – | – | O=C1CCC(N2C(=O)c3ccc(NC(=O)COCC(=O)N4CCC(n5cc(-c6cnc7ccccc7n6)cn5)CC4)cc3C2=O)C(=O)N1 (centres unmarked) [GS-342, N-(2-(2,6-Dioxopiperidin-3-yl)-1,3-dioxoisoindolin-5-yl)-2-(2-oxo-2-(4-(4-(quinoxalin-2-yl)-1H-pyrazol-1-yl)piperidin-1-yl)ethoxy)acetamide] | – | – | – | –
10 to 100 | – | 10 to 100 | – | < 10 | < 10 | O=C1CCC(N2C(=O)c3ccc(NCCCCCCn4ncc(-c5cnc6ccccc6n5)c4C(F)F)cc3C2=O)C(=O)N1 (centres unmarked) [GS-557, 5-((6-(5-(Difluoromethyl)-4-(quinoxalin-2-yl)-1H-pyrazol-1-yl)hexyl)amino)-2-(2,6-dioxopiperidin-3-yl)isoindoline-1,3-dione] | – | – | – | –
100 to 1000 | 10 to 100 | > 1000 | 10 to 100 | – | – | Cc1nn([C@H]2C[C@@H](CCCNc3ccc4c(c3)C(=O)N(C3CCC(=O)NC3=O)C4=O)C2)cc1-c1cnc2ccccc2n1 (stereo partly drawn) [GS-168, 2-(2,6-Dioxopiperidin-3-yl)-5-((3-(cis-3-(3-methyl-4-(quinoxalin-2-yl)-1H-pyrazol-1-yl)cyclobutyl)propyl)amino)isoindoline-1,3-dione] | – | – | – | –
< 10 | < 10 | < 10 | < 10 | – | – | O=C1CCC(N2C(=O)c3ccc(NCCCc4cccc(N5CCC(n6cc(-c7cnc8ccccc8n7)cn6)CC5)c4)cc3C2=O)C(=O)N1 (centres unmarked) [GS-368, 2-(2,6-Dioxopiperidin-3-yl)-5-((3-(3-(4-(4-(quinoxalin-2-yl)-1H-pyrazol-1-yl)piperidin-1-yl)phenyl)propyl)amino)isoindoline-1,3-dione] | – | – | – | –
10 to 100 | 10 to 100 | 100 to 1000 | 10 to 100 | – | – | O=C1CCC(N2C(=O)c3ccc(NCCC[C@H]4C[C@H](n5cc(-c6cnc7ccccc7n6)c(C(F)(F)F)n5)C4)cc3C2=O)C(=O)N1 (stereo partly drawn) [GS-400, 2-(2,6-Dioxopiperidin-3-yl)-5-((3-(trans-3-(4-(quinoxalin-2-yl)-3-(trifluoromethyl)-1H-pyrazol-1-yl)cyclobutyl)propyl)amino)isoindoline-1,3-dione] | – | – | – | –
> 1000 | – | 100 to 1000 | – | 10 to 100 | 10 to 100 | O=C1CCC(N2C(=O)c3ccc(NCCC[C@H]4C[C@@H](n5cc(-c6cnc7cc(N8CCNCC8)ccc7n6)cn5)C4)cc3C2=O)C(=O)N1 (stereo partly drawn) [GS-425, 2-(2,6-dioxopiperidin-3-yl)-5-((3-(cis-3-(4-(6-(piperazin-1-yl)quinoxalin-2-yl)-1H-pyrazol-1-yl)cyclobutyl)propyl)amino)isoindoline-1,3-dione] | – | – | – | –
100 to 1000 | – | 100 to 1000 | – | 10 to 100 | 10 to 100 | O=C1CCC(N2C(=O)c3ccc(NCC4CC(n5cc(-c6cnc7ccccc7n6)cn5)C4)cc3C2=O)C(=O)N1 (centres unmarked) [GS-538, 2-(2,6-Dioxopiperidin-3-yl)-5-(((3-(4-(quinoxalin-2-yl)-1H-pyrazol-1-yl)cyclobutyl)methyl)amino)isoindoline-1,3-dione] | – | – | – | –
100 to 1000 | 10 to 100 | > 1000 | 10 to 100 | – | – | O=C1CCC(N2C(=O)c3ccc(NCCC[C@H]4C[C@H](n5cc(-c6cnc7ccc(N8C[C@@H]9C[C@H]8CN9)cc7n6)cn5)C4)cc3C2=O)C(=O)N1 (stereo partly drawn) [GS-203, 5-((3-(trans-3-(4-(7-((1S,4S)-2,5-Diazabicyclo[2.2.1]heptan-2-yl)quinoxalin-2-yl)-1H-pyrazol-1-yl)cyclobutyl)propyl)amino)-2-(2,6-dioxopiperidin-3-yl)isoindoline-1,3-dione] | – | – | – | –
100 to 1000 | – | 100 to 1000 | – | 10 to 100 | 10 to 100 | O=C1CCC(N2C(=O)c3ccc(NCCC[C@H]4C[C@H](n5cc(-c6cnc7cc(C8CCOCC8)ccc7n6)cn5)C4)cc3C2=O)C(=O)N1 (stereo partly drawn) [GS-420, 2-(2,6-dioxopiperidin-3-yl)-5-((3-(trans-3-(4-(6-(tetrahydro-2H-pyran-4-yl)quinoxalin-2-yl)-1H-pyrazol-1-yl)cyclobutyl)propyl)amino)isoindoline-1,3-dione] | – | – | – | –
> 1000 | 100 to 1000 | > 1000 | 100 to 1000 | – | – | CN1CCC(c2cccc(-c3cnn([C@H]4C[C@H](CCCNc5ccc6c(c5)C(=O)N(C5CCC(=O)NC5=O)C6=O)C4)c3)n2)CC1 (stereo partly drawn) [GS-237, 2-(2,6-Dioxopiperidin-3-yl)-5-((3-(trans-3-(4-(6-(1-methylpiperidin-4-yl)pyridin-2-yl)-1H-pyrazol-1-yl)cyclobutyl)propyl)amino)isoindoline-1,3-dione] | – | – | – | –
100 to 1000 | 100 to 1000 | 100 to 1000 | > 1000 | – | – | O=C1CCC(N2C(=O)c3ccc(NCCC[C@H]4C[C@H](n5cc(-c6ccccc6)cn5)C4)cc3C2=O)C(=O)N1 (stereo partly drawn) [GS-232, 2-(2,6-Dioxopiperidin-3-yl)-5-((3-(trans-3-(4-phenyl-1H-pyrazol-1-yl)cyclobutyl)propyl)amino)isoindoline-1,3-dione] | – | – | – | –
100 to 1000 | – | 100 to 1000 | – | 10 to 100 | < 10 | O=C1CCC(N2C(=O)c3ccc(NCCCC4CC(n5cc(-c6cnc7ccc(NC8COC8)cc7n6)cn5)C4)cc3C2=O)C(=O)N1 (centres unmarked) [GS-567, 2-(2,6-Dioxopiperidin-3-yl)-5-((3-(3-(4-(7-(oxetan-3-ylamino)quinoxalin-2-yl)-1H-pyrazol-1-yl)cyclobutyl)propyl)amino)isoindoline-1,3-dione] | – | – | – | –
